Test results taken from patent US20230190616A1, “COMPOUNDS USEFUL FOR THE TREATMENT AND/OR CARE OF THE SKIN, HAIR, NAILS AND/OR MUCOUS MEMBRANES” (LUBRIZOL ADVANCED MATERIALS, INC., priority 2018, published 2023).

Legend:
[1] = test system: human muscular skeletal cells (hSKMC); experiment: Alleviation of TNF-α induced muscle mass loss in human skeletal muscle cells by immunofluorescence; format: cell-based; conditions: for % Loss (muscle mass loss): 0.01 mg/ml peptide after 20 ng/ml TNFα, normalized to mass loss control (BC + TNF) = 100; for Mass loss compared to basal control treated with TNF-α (in words): 0.01 mg/ml, hSKMC
Protocol: In vitro alleviation of the effects of muscle mass loss induced in human skeletal muscle cells by immunofluorescence.
Muscle mass loss correction by the peptides of the invention is evaluated by an immunofluorescence assay. The aim of this study is to investigate the capacity of peptide candidates to alleviate muscular mass loss after treatment with TNF-α in human muscular skeletal cells (hSKMC), i.e., to reverse the adverse effects induced by TNF-α (a model of muscular ageing). Myosin heavy chain (MHyC) is used as a morphologic marker of differentiated myotubes allowing the measurement of their diameters, and this can be used to ascertain a degree of mass loss. Tumor necrosis factor α (TNF-α) has been described in the literature as a muscle mass loss inductor.
hSKMC (Tebu-Bio) are seeded in 96-well plates at a density of 1.5×10^4 cells/well in Skeletal Muscle Cell Growth Medium (Promocell). After 24 hours incubation, the medium is replaced with Skeletal Muscle Cell Differentiation Medium (Promocell) and cells are differentiated for 6 days. After this, muscular cells mass loss is induced by adding fresh differentiation medium with 20 ng/ml TNFα (Sigma). Non-TNFα treated cells are used as a basal control (BC). After 24 hours of mass loss induction, the culture medium is replaced in some of the well plates with fresh differentiation medium comprising 0.01 mg/ml of the peptides of the invention. TNFα treated cells which are not treated with peptides are used as a mass loss control (BC + TNF) and cells which are treated with neither the peptides of the invention nor TNFα are used as a basal mass loss control (BC). Treatment is renewed 24 hours later. After 24 hours after the second treatment, immunofluorescence is determined. Cells are fixed 15 minutes with 4% Paraformaldehyde (Sigma), permeated 15 minutes with 1% Triton X-100 (Sigma) and then blocked with 5% Bovine Serum Albumin (Sigma). Next, primary antibody Anti-MHyC mouse (1:100, Vitro) is added and incubated overnight at 4° C. After that, secondary antibody Alexa Fluor 488 goat anti-mouse IgG (1:250, Life Technologies) is added and incubated for 1 hour. Finally, myotube diameters are determined by imaging MHyC staining by Operetta™ (Perkin Elmer). Percentage of mass loss is automatically calculated with Harmony™ (Perkin Elmer) software by classifying myotubes according to their diameter using a mass loss threshold of 20 µm. The results are normalized to the mass loss control (BC + TNF).

[2] = test system: human neuroblastoma cell line (SH-SY5Y); experiment: Inhibition of noradrenaline (NA) release from human neuroblastoma cells, ELISA; format: cell-based; conditions: SH-SY5Y, respect to basal control, mean of 3 assays
Excerpt: Inhibition of noradrenaline release from human neuroblastoma cells.
Release of neurotransmitters by exocytosis in neuromuscular junctions from peripheral neurons to skeletal muscle allows muscle contraction. Face muscles are subject to said contraction and facial muscle contraction is more frequent around eyes, mouth and forehead than elsewhere in the face. With age, continuous release of neurotransmitters into neuromuscular junctions and decrease of elasticity contribute to the increase of facial wrinkles and permanent expression lines. Compounds able to block or decrease exocytosis on neuromuscular junction sites are thus good candidates for the cosmetic treatment of unaesthetic wrinkles. In vitro induction of the neurotransmitter Noradrenaline (NA) release in a human neuroblastoma cell line (SH-SY5Y) is considered a direct and reliable method for exocytosis measurement. The aim of this study is to evaluate the efficacy of the peptides of the invention on the inhibition of neuronal exocytosis by means of measuring the levels of NA release in SH-SY5Y cells by Enzyme-linked Immunosorbent Assay (ELISA).
SH-SY5Y (ECACC) cells are seeded in 12-well plates at a density of 1×10^6 cells/well. After a 6-day culture, medium is removed from wells and cells are treated for 60 minutes with the peptides of the invention dissolved in Hank’s Balanced Salt Solution (HBSS, Life Technologies) at 1 and 2.5 mg/ml. Cells treated with HBSS alone are used as a basal control. To mobilize NA vesicles, supernatants are removed and 100 nM Tetradecanoylphorbol-13-acetate (TPA, Sigma) is dissolved in the presence of test items in HBSS or dissolved in HBSS alone in the case of the basal control. After this, solutions with TPA are removed and NA release is induced by the addition of 10 µM lonomycin (Epica) with 100 nM TPA dissolved in the presence of test items in HBSS or dissolved in HBSS alone in the case of the basal control. Afterwards, the medium in the wells, containing released NA, is collected and centrifuged. Supernatants obtained are used for quantification of NA by ELISA with noradrenalin ELISA kit (IBL International) following manufacturer’s instructions. In brief, direct sandwich ELISA is performed with a plate pre-coated with an anti-NA antibody. The color obtained after substrate addition is directly proportional to the amount of NA present in each condition tested. Absorbance is read in a microplate absorbance reader (Clariostar™, BMG) at 405 nm. The percentage of NA release for each condition is calculated respect to basal control.

| Substance | % Loss (muscle mass loss) [1] [%] | Mass loss compared to basal control treated with TNF-α (in words) [1] | % Released NA ([2]; 1 mg/ml) [%] | % Released NA ([2]; 2.5 mg/ml) [%] |
| --- | --- | --- | --- | --- |
| Ac-L-Arg-L-Arg-D-Gln-L-Met-L-Glu-L-Glu-NH2 [PEP-22] | 76.2 | alleviate mass loss | 58.9 | 49.0 |
| Ac-L-Arg-L-Arg-L-Gln-D-Met-L-Glu-L-Glu-NH2 [PEP-23] | 71.9 | alleviate mass loss | 78.9 | 52.8 |
